EC50, IC50 and inhibition data for ten compounds are collected here from ChEMBL document CHEMBL4680067, “Identification of LASSBio-1945 as an inhibitor of SARS-CoV-2 main protease (MPRO) through in silico screening supported by molecular docking and a fragment-based pharmacophore model” (RSC Med Chem, 2021).

One assay has as its system SARS-CoV-2. Briefly: Antiviral activity against SARS CoV-2 infected in African green monkey Vero cells assessed as inhibition of viral replication measured after 72 hrs by qRT-PCR analysis. The format is functional, organism-based. The note with it: Severe acute respiratory syndrome coronavirus 2, Vero.
Assay [1] is described as follows: Inhibition of SARS CoV-2 main protease by rapidfire high-throughput mass spectrometry. Also noted: species or system Severe acute respiratory syndrome coronavirus 2.
For assay [2], the system named is Severe acute respiratory syndrome coronavirus 2. Briefly: Inhibition of SARS CoV-2 main protease at 50 uM by rapidfire high-throughput mass spectrometry relative to control.
Assay [3] in a line: Inhibition of SARS CoV-2 main protease. Further details: species or system Severe acute respiratory syndrome coronavirus 2; call rule not given here.

Usually EC50 stands for the concentration at which the effect is half-maximal. Turning to `Cc1cc(C(=O)N[C@@H](C)C(=O)N[C@H](C(=O)N[C@@H](CC(C)C)C(=O)N[C@H](/C=C/C(=O)OCc2ccccc2)C[C@@H]2CCNC2=O)C(C)C)no1`, in the assay with SARS-CoV-2, the EC50 turned out to be 16.8 µM.
By IC50 is commonly meant the concentration at which inhibition is half-maximal. `Cc1ncccc1NC(=O)Cc1cccc(Cl)c1`: in assay [1], the IC50 result is “Not Active”.
Regarding `Cc1ccc(NC(=O)Cc2cccc(Cl)c2)cn1`, the IC50 entry in assay [1] is listed as “Not Active”.
As usually defined, the inhibition is the drop in the measured response relative to a control, in per cent. Consider `O=C(CNc1c(-c2ccccc2)nc2ccccn12)N/N=C/c1cccc2ccccc12`, for which the inhibition in assay [2] is 7.53%.
Same read-out and setting: the result for `Cc1[nH]c2ccccc2c1/C=N/N(C)C(=O)c1ccc2c(c1)OCO2` reads -6.66%.
Turning to `CCCc1cc2c(cc1S(=O)(=O)N1CCN(c3ccccc3)CC1)OCO2`, the inhibition in assay [2] amounted to 68.3%. For the same compound, the half-maximal inhibitory concentration (IC50) in assay [1] (read-out: IC50) is 16 µM.
In the case of `O=C(Cc1cccc(Cl)c1)Nc1cccnc1`, the IC50 in assay [1] (read-out: IC50) came to 53.7 µM.
Consider `Cc1csc(C(=O)N/N=C/c2cccnc2)c1N`, for which the inhibition in assay [2] is -6.32%.
`O=C(Nc1ccccc1)Nc1cnc2ccc([N+](=O)[O-])cc2n1`: in assay [2], the inhibition came out at 0.77%.
Take `COc1ccc(/N=C2/C(=O)N(Cc3ccc4ccccc4c3)c3ccc(C(N)=O)cc32)cc1`: in assay [3], 17 µM corresponded to half-maximal inhibition (IC50).
